Among the test systems are LOX IMVI melanoma; SF-295 CNS; NCI-H522 lung; HOP-62 NSCLC; OVCAR-3 ovarian; 786-0 renal; NCI/ADR-RES ovarian; HCT-116 colon; SK-MEL-5 melanoma; MCF7 breast.
Common to all, as to test: DTP human tumour cell line panel, 48 h

Drawing on PubChem BioAssay (NCI), this text covers GI50 and TGI for 14 molecules.

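Method: 48-hour compound exposure of cells in 96-well plates, five concentrations, linear interpolation of endpoints. The concentration for 50% growth inhibition is given as GI50. At the TGI there is no net growth.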

Take `NS(=O)(=O)OC[C@H]1O[C@@H](n2cnc3c(N[C@H]4CCc5ccccc54)ncnc32)[C@H](O)[C@@H]1O`: the 50% growth inhibitory concentration (GI50) (usually the concentration that inhibits growth by half) in the assay on LOX IMVI melanoma is 0.0209 µM; with SF-295 CNS, 0.387 µM; in the assay with NCI-H522 lung it was 0.0271 µM; in the assay with HOP-62 NSCLC it was 0.0569 µM; with OVCAR-3 ovarian, 0.0409 µM; in the assay with 786-0 renal, 0.0799 µM. For the same molecule, the GI50 is 5.05 µM with NCI/ADR-RES ovarian, 0.0213 µM with HCT-116 colon, 0.0369 µM with SK-MEL-5 melanoma and 0.0736 µM in the assay on MCF7 breast. Moreover, the TGI (usually the concentration at which net growth stops) in the assay on LOX IMVI melanoma worked out at 0.0572 µM; in the assay with SF-295 CNS it was 1.94 µM; with NCI-H522 lung, 0.192 µM; in the assay with HOP-62 NSCLC, 0.485 µM; in the assay on OVCAR-3 ovarian, 0.145 µM; with 786-0 renal, 0.373 µM. Further, the concentration for total growth inhibition (TGI) with NCI/ADR-RES ovarian was greater than 100 µM; in the assay with HCT-116 colon it was 0.114 µM; in the assay on SK-MEL-5 melanoma, 0.151 µM; in the assay with MCF7 breast it was greater than 100 µM.

Regarding `COC1=C(NC(C)=O)C(=O)c2nc3n(c2C1=O)CCC3`, the concentration for total growth inhibition (TGI) was 31.8 µM in the assay on LOX IMVI melanoma; 40.3 µM in the assay with SF-295 CNS; 40.1 µM in the assay with NCI-H522 lung; 39.9 µM in the assay on HOP-62 NSCLC; 30.3 µM in the assay on OVCAR-3 ovarian; 36.4 µM with 786-0 renal. Besides, the concentration for total growth inhibition (TGI) with NCI/ADR-RES ovarian came out at 41.1 µM; with HCT-116 colon, 29.4 µM; with SK-MEL-5 melanoma, 31.5 µM; with MCF7 breast, 47.1 µM.

Regarding `O=C(/C=C/c1ccccc1O)CC(=O)/C=C/c1ccccc1O`, the total growth inhibition concentration (TGI) with LOX IMVI melanoma is 6.45 µM; in the assay on SF-295 CNS, greater than 31.6 µM; in the assay on NCI-H522 lung, 9.83 µM; in the assay with HOP-62 NSCLC it was 19.4 µM; in the assay with OVCAR-3 ovarian it was 22.3 µM; with 786-0 renal, 16.1 µM. Moreover, the TGI with NCI/ADR-RES ovarian is 14.5 µM; in the assay with HCT-116 colon, 7.42 µM; in the assay on SK-MEL-5 melanoma, 14.6 µM; with MCF7 breast, 7.61 µM.

With `c1ccc2c(c1)N=c1ccccc1=P21c2ccccc2Nc2ccccc21`, the TGI with LOX IMVI melanoma worked out at 4.96 µM; with SF-295 CNS it was 7.64 µM; in the assay with NCI-H522 lung, 0.913 µM; in the assay with HOP-62 NSCLC it was 8.32 µM; in the assay with OVCAR-3 ovarian it was 1.57 µM; in the assay on 786-0 renal, 11.7 µM. Besides, the TGI in the assay on NCI/ADR-RES ovarian is greater than 100 µM; in the assay with HCT-116 colon it was 1.76 µM; in the assay on SK-MEL-5 melanoma, 0.42 µM; in the assay on MCF7 breast, 5.74 µM.

For the molecule `COc1ccc(/C(C#N)=C/c2nc3c(N4CCOCC4)nc(Cl)nc3n2C)cc1OC`, the 50% growth inhibitory concentration (GI50) in the assay with LOX IMVI melanoma, with SF-295 CNS, in the assay on NCI-H522 lung, in the assay on HOP-62 NSCLC, with OVCAR-3 ovarian and with 786-0 renal was less than 0.01 µM throughout. Further, the GI50 in the assay on NCI/ADR-RES ovarian is less than 0.01 µM; in the assay with HCT-116 colon, less than 0.01 µM; in the assay on SK-MEL-5 melanoma it was less than 0.0108 µM; in the assay on MCF7 breast, less than 0.0137 µM. Besides, the concentration for total growth inhibition (TGI) with LOX IMVI melanoma is 1.15 µM; in the assay with SF-295 CNS it was 2.17 µM; with NCI-H522 lung, 1.28 µM; in the assay with HOP-62 NSCLC, 2.53 µM; with OVCAR-3 ovarian it was less than 0.01 µM; in the assay with 786-0 renal, 1.61 µM. Further, the TGI with NCI/ADR-RES ovarian is less than 0.01 µM; with HCT-116 colon, 1.47 µM; in the assay with SK-MEL-5 melanoma, 0.0347 µM; with MCF7 breast, 1.75 µM.

Take `O=C(O)CSc1ccn(Cc2ccccc2)c1`: the concentration for total growth inhibition (TGI) in the assay with LOX IMVI melanoma, in the assay with SF-295 CNS, with NCI-H522 lung, in the assay on HOP-62 NSCLC, with OVCAR-3 ovarian and in the assay on 786-0 renal was greater than 100 µM throughout. Besides, the TGI with NCI/ADR-RES ovarian, in the assay on HCT-116 colon, in the assay on SK-MEL-5 melanoma and in the assay on MCF7 breast was greater than 100 µM each time.

Turning to `N#CC1=C(N)Oc2c(sc3c(F)cccc23)C1c1ccc(Cl)cc1` (stereo not given), the GI50 in the assay with LOX IMVI melanoma is 3.06 µM; in the assay with SF-295 CNS it was 2.74 µM; in the assay with NCI-H522 lung it was 1.93 µM; in the assay on HOP-62 NSCLC, 2.99 µM; with OVCAR-3 ovarian, 2.6 µM; in the assay on 786-0 renal, 3.15 µM. Moreover, the GI50 in the assay on NCI/ADR-RES ovarian was 2.09 µM; with HCT-116 colon, 3.7 µM; in the assay on SK-MEL-5 melanoma, 3.68 µM; with MCF7 breast, 1.85 µM. Also, the TGI with LOX IMVI melanoma was determined as 11.8 µM; in the assay with SF-295 CNS, 9.5 µM; in the assay with NCI-H522 lung it was 11.7 µM; in the assay with HOP-62 NSCLC, 15.7 µM; in the assay on OVCAR-3 ovarian, 7.44 µM; with 786-0 renal, 11.1 µM. Also, the TGI in the assay on NCI/ADR-RES ovarian worked out at 6.68 µM; in the assay with HCT-116 colon, 13.9 µM; in the assay with SK-MEL-5 melanoma, 15.1 µM; with MCF7 breast it was 12 µM.

Take `COc1ccc(C2CC(c3cccc(Nc4ccnc5cc(Cl)ccc45)c3)=NN2c2ccccc2)cc1` (stereo not given): the GI50 in the assay with LOX IMVI melanoma is 0.338 µM; in the assay on SF-295 CNS it was 1.62 µM; in the assay with NCI-H522 lung it was 0.952 µM; with HOP-62 NSCLC it was 0.949 µM; in the assay on OVCAR-3 ovarian it was 3.2 µM; in the assay on 786-0 renal, 3.95 µM. Further, the GI50 is 1.51 µM in the assay on NCI/ADR-RES ovarian, 1.12 µM in the assay with HCT-116 colon, 1.46 µM with SK-MEL-5 melanoma and 1.52 µM in the assay with MCF7 breast. The TGI with LOX IMVI melanoma was 11.1 µM; with SF-295 CNS, 16.4 µM; in the assay with NCI-H522 lung it was 13.8 µM; in the assay with HOP-62 NSCLC, 21.3 µM; in the assay on OVCAR-3 ovarian it was greater than 100 µM; in the assay with 786-0 renal, greater than 100 µM. For the same molecule, the TGI with NCI/ADR-RES ovarian was determined as 26.4 µM; in the assay on HCT-116 colon it was 18.7 µM; with SK-MEL-5 melanoma, 4.76 µM; in the assay on MCF7 breast, 27.4 µM.

With `COc1cc(C2C3=C(COC3=O)N(CCO)c3cc4c(cc32)OCCO4)cc(OC)c1O` (stereo not given), the GI50 was 2.49 µM in the assay on LOX IMVI melanoma; 1.22 µM in the assay with SF-295 CNS; 0.182 µM in the assay with NCI-H522 lung; 2.72 µM in the assay with HOP-62 NSCLC; 0.947 µM with OVCAR-3 ovarian; 7.03 µM in the assay on 786-0 renal. Moreover, the GI50 was greater than 31.8 µM with NCI/ADR-RES ovarian, 2.15 µM in the assay on HCT-116 colon, 1.29 µM with SK-MEL-5 melanoma and 0.957 µM in the assay on MCF7 breast. In addition, the TGI in the assay on LOX IMVI melanoma was greater than 50 µM; in the assay with SF-295 CNS, 4.12 µM; in the assay on NCI-H522 lung, 2.8 µM; in the assay with HOP-62 NSCLC it was greater than 50 µM; in the assay on OVCAR-3 ovarian, 2.29 µM; in the assay with 786-0 renal, greater than 50 µM. The TGI in the assay with NCI/ADR-RES ovarian is greater than 50 µM; in the assay on HCT-116 colon it was greater than 50 µM; in the assay with SK-MEL-5 melanoma, greater than 20.5 µM; in the assay on MCF7 breast, greater than 50 µM.

Take `CC(C)n1c2c(c3ccccc3c1=O)C(=O)c1ccccc1-2`: the total growth inhibition concentration (TGI) in the assay on LOX IMVI melanoma, with SF-295 CNS, in the assay on NCI-H522 lung, with HOP-62 NSCLC, in the assay with OVCAR-3 ovarian and with 786-0 renal was greater than 100 µM in each case. Besides, the total growth inhibition concentration (TGI) in the assay with NCI/ADR-RES ovarian, with HCT-116 colon, in the assay on SK-MEL-5 melanoma and in the assay with MCF7 breast was greater than 100 µM throughout.

On to `COc1ccc2c(c1)Cc1cc(N=[N+]([O-])c3ccc4c(c3)Cc3cc(OC)ccc3-4)ccc1-2`, for which the TGI is 97.7 µM in the assay on LOX IMVI melanoma; greater than 100 µM with SF-295 CNS; 30.3 µM with NCI-H522 lung; greater than 100 µM in the assay with HOP-62 NSCLC; greater than 100 µM in the assay with OVCAR-3 ovarian; greater than 100 µM with 786-0 renal. Moreover, the TGI was greater than 100 µM with NCI/ADR-RES ovarian, greater than 100 µM with HCT-116 colon, 42.8 µM in the assay with SK-MEL-5 melanoma and 64.4 µM in the assay on MCF7 breast.

`COC(=O)c1ccc2c(c1)[n+](=O)c(C(C)=O)c(C(F)(F)F)n2[O-]`: the GI50 with LOX IMVI melanoma was 1.7 µM; in the assay with SF-295 CNS, 1.33 µM; in the assay with NCI-H522 lung, 1.66 µM; in the assay with HOP-62 NSCLC, 1.94 µM; with OVCAR-3 ovarian, 1.82 µM; in the assay with 786-0 renal, 1.91 µM. Also, the GI50 with NCI/ADR-RES ovarian is 2.48 µM; in the assay on HCT-116 colon it was 1.45 µM; with SK-MEL-5 melanoma it was 1.69 µM; with MCF7 breast, 1.76 µM. For the same molecule, the total growth inhibition concentration (TGI) was 3.2 µM in the assay on LOX IMVI melanoma; 2.78 µM in the assay on SF-295 CNS; 3.28 µM in the assay on NCI-H522 lung; 3.69 µM in the assay on HOP-62 NSCLC; 3.27 µM in the assay with OVCAR-3 ovarian; 3.37 µM in the assay on 786-0 renal. The total growth inhibition concentration (TGI) was found to be 6.41 µM in the assay with NCI/ADR-RES ovarian, 2.76 µM in the assay with HCT-116 colon, 3.06 µM in the assay on SK-MEL-5 melanoma and 3.37 µM in the assay with MCF7 breast.

With `CCCCCCCC(=O)SCC/C=C/[C@@H]1CC(=O)NCc2cccc(n2)CN(Cc2ccc(Cl)cc2)CC(=O)N[C@@H](C(C)C)C(=O)O1`, the GI50 in the assay with LOX IMVI melanoma was 5.33 µM; with SF-295 CNS it was 4.45 µM; with NCI-H522 lung, 6.82 µM; with HOP-62 NSCLC it was 5.4 µM; in the assay on OVCAR-3 ovarian, 13.1 µM; in the assay on 786-0 renal it was 22 µM. In addition, the GI50 with NCI/ADR-RES ovarian is 11.4 µM; in the assay with HCT-116 colon, 4.23 µM; in the assay with SK-MEL-5 melanoma, 5.26 µM; with MCF7 breast it was 12.1 µM. The TGI in the assay with LOX IMVI melanoma was 19.6 µM; in the assay on SF-295 CNS, 20.3 µM; in the assay with NCI-H522 lung, 54.1 µM; in the assay with HOP-62 NSCLC, 44.4 µM; in the assay on OVCAR-3 ovarian, 49.4 µM; in the assay with 786-0 renal it was greater than 100 µM. The concentration for total growth inhibition (TGI) in the assay on NCI/ADR-RES ovarian is greater than 100 µM; with HCT-116 colon it was 15.6 µM; in the assay with SK-MEL-5 melanoma, 17.6 µM; in the assay on MCF7 breast it was greater than 100 µM.

In the case of `S=c1sc2ccccc2n1CN1CCN(Cc2ccccc2)CC1`, the TGI in the assay with LOX IMVI melanoma, in the assay on SF-295 CNS, with NCI-H522 lung, in the assay on HOP-62 NSCLC, with OVCAR-3 ovarian and in the assay on 786-0 renal was greater than 100 µM each time. Also, the TGI in the assay with NCI/ADR-RES ovarian, in the assay with HCT-116 colon, in the assay on SK-MEL-5 melanoma and in the assay with MCF7 breast was greater than 100 µM each time.
